According to patent US9526766B2, “Potentiation of antibiotic treatment with a protein-lipid complex” (priority 2012, dated 2016):
≈ marks a conversion by molar mass, not a printed value. Where two headings read alike, the source gives them in different places.

How the values were obtained:
[1] = system: NRS 384 Staphylococci; assay: Intracellular pH measurement (BCECF-AM); type: cell-based, Staphylococcus aureus; settings: ALAFAC 100 μg/mL (6 μM), RuR 30 μM, Amiloride 1 mM
From the text: Intracellular pH measurement. A reported protocol for intracellular pH (pHi) measurement was modified and optimized for S. aureus by testing the effect of various dye concentrations and staining times on the measured fluorescence of S. aureus isolate NRS 384 grown to mid-log phase. Cell samples were subjected to increasing concentrations of the membrane-permeant acetoxymehtyl (AM) ester derivative of the dual-excitation ratiometric pH indicator dye BCECF (2′,7′-bis-(2-carboxyethyl)-5-(and-6)-carboxyfluorescein), for 30 minutes at 30° C. Fluorescence was measured as a ratio of fluorescence at 530 nm with dual wavelength excitation at 490 and 440 nm and calibration curves were established for each independent experiment. After testing a number of loading concentrations we observed that the fluorescence ratios remains generally constant when concentrations above 20 μM was used. Therefore 25 μM BCECF-AM was used for all experiments. The optimized staining time, 30 minutes, was determined using the same criteria and was used for all experiments. After loading, the cells were washed twice in PBS by centrifugation and the resulting pellet was resuspended in PBS to the original volume and ALAFAC and ALAFAC/antibiotic combinations were added. CCCP was added as a positive control. CCCP is a lipophilic weak acid that is soluble in the lipid domain of the membrane in both the protonated and deprotonated form. This allows it to act as a protonophore causing an influx of H^+ into the cytoplasm, dissipating both the electrical potential and the H^+ gradient across the inner membrane. For each experiment calibration was performed where cells were resuspended in high [K^+] buffers at different pH values ranging from 6.5 to 8.0.

[2] = system: Staphylococcus aureus; assay: MIC by broth microdilution, antibiotics with and without ALAFAC; type: cell-based; settings: for MIC: Staphylococcus aureus
Experimental: (§1) Methodology: Minimal inhibitory concentrations (MICs) were determined in 96-well microtiter plates using the microdilution method according to approved standards of the CLSI except that Todd-Hewitt medium supplemented with 0.5% yeast extract, which yields reproducible MIC results was used as the test medium for S. pneumoniae. For the remaining species Mueller-Hinton medium was used as indicated by the CLSI standard. Each well contained two-fold dilutions of antibiotic, was seeded with a final bacterial concentration of 10^5 CFU/mL, and was incubated for 18 h at 37° C. in a Synergy II microplate reader (Biotek, Winooski, Vt.) where the OD600 was recorded every 5 minutes to monitor bacterial growth. The MIC was defined as the lowest concentration of antimicrobial agent solution at which no increase in OD600 was detected.
In vitro susceptibility tests. Minimal inhibitory concentrations (MICs) were determined in 96-well microtiter plates using the microdilution method according to approved standards of the CLSI as described previously. However, rather than Mueller-Hinton broth, Tryptic soy broth (TSB) was used for susceptibility testing as it is the common media used for Staphylococcal growth, and as it has shown more consistent results for a variety of antimicrobials when tested against Staphylococci. […] A two-fold dilution series of antibiotics in triplicate and in the presence or absence of ALAFAC was prepared in 96 well microtiter plates, and each well was seeded with a final bacterial concentration of 10^5 CFU/mL, and was incubated for 24 h at 37° C. in a Synergy 2 microplate reader (Biotek, Winooski, Vt.) where the Optical Density at 600 nm (OD600) was recorded every 5 minutes to monitor bacterial growth. The MIC was defined as the lowest concentration of antimicrobial agent solution where no increase in OD600 was detected.

[3] = system: NRS 123 Staphylococci; assay: Membrane potential, DiBAC4(3) fluorescence; type: cell-based, Staphylococcus aureus; settings: Ruthenium Red, Amiloride
Experimental: Assessing membrane potential. Staphylococci grown to late log phase in TSB were pelleted by centrifugation at 2,400×g for 10 minutes and washed twice by resuspension in PBS. The bacterial pellet was resuspended in PBS to half of the original volume and energized with 50 mM glucose for 15 minutes at 37° C. To measure membrane potential of the staphylococcal membrane, 500 nM DiBAC4(3) (bis-(1,3-dibutylbarbituric acid) trimethine oxonol; Molecular Probes, Eugene, Oreg., USA) were added. […] The plate was then placed immediately into a pre-warmed (37° C.) Synergy 2 Multi-Mode Microplate Reader (BioTek) where fluorescence readings from DiBAC4(3) (485/20 nm excitation, 528/20 nm emission) were taken every minute for one hour. The difference in fluorescence intensity between the untreated control and the ALAFAC-treated sample was calculated for the “no inhibitor” samples and for the “inhibitor” samples using the values after 60 minutes. The fluorescence intensity difference for the “inhibitor” samples was then expressed as fold change of the intensity compared with the ALAFAC alone (“no inhibitor”) sample, providing the degree of depolarization compared to the “ALAFAC alone” sample.

[4] = system: Streptococcus pneumoniae biofilms; assay: Static biofilm model, viable counts; type: cell-based; settings: for Minimum antibiotic concentration for bactericidal (>3 log10) activity on biofilms: within 4-6 hours, antibiotic alone
Experimental: Methodology: Pneumococci were grown statically in CDM and S. aureus were grown in trypic soy medium to mid-logarithmic phase (OD600=0.5), washed, and resuspended in fresh pre-warmed medium to a density of 2×10^4 CFU in 500 μl volume, and suspensions were used to seed sterile round glass coverslips in the bottom of polystyrene 24-well plates with or without a substratum of confluent H292 epithelial cells. Biofilms were cultured at 34° C. in 5% CO2 for indicated times with change of culture media every 12 hours and to assess biomass and antibiotic resistance by viable counts (as described).
Biofilms were then washed in PBS and detached by scraping the surface in the presence of 100 μL PBS followed by a rinse with 100 μL PBS. Collected cells were sonicated in a sonication water bath for 2 s followed by vortexing twice for 20 seconds at high speed and the dispersed biofilm cells were used to determine viable CFUs per ml from diluted samples plated and grown on blood agar.
Static Biofilm Model. Pneumococci were grown in CDM to mid-logarithmic phase (OD600=0.5), washed, and resuspended in fresh pre-warmed medium to a density of 2×10^4 CFUs in 500 μl volume, and suspensions were used to seed sterile round glass coverslips in the bottom of polystyrene 24-well plates with a substratum of confluent H292 epithelial cells as described. Biofilms were cultured at 34° C. in 5% CO2 for indicated times with change of culture media every 12 hours and used for SEM studies or to assess biomass and antibiotic resistance by viable plate counts.
Biofilms were then washed in PBS, dispersed by sonication, and collected by pipetting in 100 μL PBS followed by a rinse with 100 μL PBS. Collected cells were then vortexed twice for 20 seconds at high speed and the dispersed biofilm cells were used to determine viable CFUs per ml from diluted samples plated and grown on blood agar. Results are reported as the total number of CFUs per biofilm.

[5] = system: Staphylococcus aureus; assay: Minimal bactericidal concentration (MBC) from MIC plates; type: cell-based; settings: Staphylococcus aureus
From the text: The MBC was defined as the lowest concentration of antimicrobials yielding colony counts <0.1% (3 log10 reduction) of the initial inoculum (as determined by colony counts from the growth control well immediately after inoculation) as described.

[6] = system: Streptococcus pneumoniae; assay: MIC by broth microdilution, antibiotics with and without ALAFAC; type: cell-based; settings: Streptococcus pneumoniae, agent alone, read-out: MIC
Experimental: as §1
In vitro susceptibility tests. Minimal inhibitory concentrations (MICs) were determined in 96-well microtiter plates using the microdilution method according to approved standards of the CLSI except that Todd-Hewitt medium supplemented with 0.5% yeast extract, which yields reproducible MIC results was used as the test medium for S. pneumoniae. MICs for A. baumanni, and M. catarrhalis were determined in MH media. Two-fold dilutions of a starting antibiotic concentration was added in triplicate into microtiter plate wells (in 96-well plates), were seeded with a final bacterial concentration of ˜10^5 colony forming units (CFU)/mL, and was incubated for 18 h in ambient air at 37° C. in a Synergy II microplate reader (Biotek, Winooski, Vt.) where the OD600 was recorded every 5 minutes to monitor bacterial growth. The MIC was defined as the lowest concentration of antimicrobial agent solution at which no increase in OD600 was detected.

[7] = system: Streptococcus pneumoniae; assay: Short-time kill assay on planktonic cultures; type: cell-based; settings: for Minimum antibiotic concentration for bactericidal (>3 log10) activity, planktonic: within 4-6 hours, antibiotic alone; for Bactericidal activity (FIG. 1): 1 hour at 37° C., fatty acids: concentration required to kill versus that associated with the ALAFAC-complex
Experimental: Methodology: In late logarithmic growth phase, the bacteria were harvested by centrifugation at 12,000×g for 10 minutes and resuspended in phosphate-buffered saline (PBS; […], […], […], pH 7.4). Appropriate dilutions of the bacteria were suspended in PBS and treated with indicated concentrations of ALAFAC and/or antibiotics for various times. The effect on bacterial viability was assessed by plating serial dilutions of bacterial sample on tryptic soy agar plates containing 5% sheep blood (viable counts) and determining viable colony forming units after overnight growth at 37° C.
Short-time kill assays. In late logarithmic growth phase, the bacteria were harvested by centrifugation at 12,000×g for 10 minutes and resuspended in phosphate-buffered saline (PBS; 30 mM Na2HPO4, 10 mM KH2PO4, […], pH 7.4). Appropriate concentrations of the bacteria (around 10^8 colony forming units per ml) were suspended in PBS and treated with indicated concentrations of ALAFAC and/or antibiotics for various times. The effect on bacterial viability was assessed by plating serial dilutions of bacterial sample on tryptic soy agar plates containing 5% sheep blood (viable counts) and determining viable CFUs after overnight growth at 37° C.

[8] = system: Staphylococcus aureus biofilms; assay: Static biofilm model, viable counts; type: cell-based; settings: NRS 1 (VISA) and NRS 384 (VSSA) biofilms; 24 hours; vancomycin 32 μg/mL (21 μM) alone or with ALAFAC
Experimental: Static Biofilm Model. Staphylococci were grown in TSB to mid-logarithmic phase (OD600=0.5), washed, and resuspended in fresh pre-warmed medium to a density of 2×10^4 CFU in 500 μl volume, and suspensions were used to seed polystyrene 24-well plates. Bacteria were cultured at 37° C. for 12 hours, after which biofilms were washed with PBS to eliminate planktonic bacteria and were exposed to TSB with indicated concentrations of ALAFAC and/or antibiotics for 24 hours at 37° C. Biofilms were then washed in PBS, sonicated and detached by scraping the surface in the presence of 100 μL PBS followed by a rinse with 100 μL PBS. Collected cells were vortexed twice for 20 seconds at high speed and the dispersed biofilm cells were first observed by microscopy to ensure proper dispersion and then diluted in a 10-fold dilution series where 100 μl of each dilution was plated on blood agar plates to determine viable CFUs per ml after overnight growth at 37° C. Colony counts from plates carrying 20-200 colonies were used to determine the viable counts and are reported as the total number of colony-forming units per biofilm.

For `N=C(N)NC(=O)c1nc(Cl)c(N)nc1N` [Amiloride], the “Transmembrane proton gradient (intracellular pH)” value [1] was “did not fully inhibit”, the “Effect of inhibitor on ALAFAC antibiotic potentiation in MIC assay” value ([2]; NRS 123, methicillin + ALAFAC, Ruthenium Red 30 μM, Amiloride 1 mM) was “completely abolished” and the “Effect of inhibitor on ALAFAC-associated membrane depolarization” value [3] was “completely abolished”.
`CC[C@H]1OC(=O)[C@H](C)[C@@H](O[C@H]2C[C@@](C)(OC)[C@@H](O)[C@H](C)O2)[C@H](C)[C@@H](O[C@@H]2O[C@H](C)C[C@H](N(C)C)[C@H]2O)[C@](C)(O)C[C@@H](C)C(=O)[C@H](C)[C@@H](O)[C@]1(C)O` [Erythromycin, erythromycin] was tested, and the Biofilm killing ([4]; D39 48 h biofilm (8.7 log10), erythromycin 500 μg/ml alone or with 250 μg/ml ALAFAC) was “no bactericidal effects”, the “Minimum antibiotic concentration for bactericidal (>3 log10) activity on biofilms” value ([4]; S. pneumoniae D39 biofilm) was greater than 1000 μg/ml and the “Minimum antibiotic concentration for bactericidal (>3 log10) activity on biofilms” value ([4]; S. pneumoniae JY53 biofilm) was greater than 1000 μg/ml. The MBC ([5]; NRS123, S. aureus NRS123, antibiotic alone, read-out: MBC) was 16 mg/L (≈ 21.8 µM), the MBC ([5]; NRS384, S. aureus NRS384, antibiotic alone, read-out: MBC) was greater than 256 mg/L and the MIC ([6]; S. pneumoniae D39) was 0.03 mg/L. For the same molecule, the MIC ([6]; S. pneumoniae JY53 (erythromycin-resistant)) was 3 mg/L, the Short-time killing ([7]; D39, 4 hours, ALAFAC 50 μg/ml, erythromycin 200 μg/ml, alone or combined, 7.2 log10 inoculum) was “insignificant bactericidal activity” and the Bactericidal activity alone ([7]; D39 and EF3030, 1 hour, penicillin G up to 5,000 μg/ml, erythromycin up to 1,000 μg/ml) was “lacked any bactericidal activity”. The “Minimum antibiotic concentration for bactericidal (>3 log10) activity, planktonic” value ([7]; S. pneumoniae D39) was >1,000 μg/ml, the “Minimum antibiotic concentration for bactericidal (>3 log10) activity, planktonic” value ([7]; S. pneumoniae JY53) was greater than 1000 μg/ml and the MIC ([2]; S. aureus NRS123, antibiotic alone, read-out: MIC) was 0.5 mg/L. It also gave an MIC ([2]; S. aureus NRS384, antibiotic alone, read-out: MIC) of 16 mg/L.
In the case of `CN[C@H](CC(C)C)C(=O)N[C@H]1C(=O)N[C@@H](CC(N)=O)C(=O)N[C@H]2C(=O)N[C@H]3C(=O)N[C@H](C(=O)N[C@H](C(=O)O)c4cc(O)cc(O)c4-c4cc3ccc4O)[C@H](O)c3ccc(c(Cl)c3)Oc3cc2cc(c3O[C@@H]2O[C@H](CO)[C@@H](O)[C@H](O)[C@H]2O[C@H]2C[C@](C)(N)[C@H](O)[C@H](C)O2)Oc2ccc(cc2Cl)[C@H]1O` [Vancomycin, vancomycin], the MBC ([5]; NRS1) was 32 mg/L (≈ 22.1 µM), the MBC ([5]; NRS384) was 16 mg/L (≈ 11 µM) and the Biofilm killing [8] was “almost complete insensitivity”. The MIC ([2]; NRS1) was 8 mg/L and the MIC ([2]; NRS384) was 1 mg/L.
In the case of `CCCCC/C=C\C/C=C\CCCCCCCC(=O)O` [linoleic acid], the “Bactericidal activity (FIG. 1)” value ([7]; S. pneumoniae D39) was “considerably higher”.
For `CCCCCCCC/C=C\CCCCCCCC(=O)O` [oleic acid], the “Bactericidal activity (FIG. 1)” value ([7]; S. pneumoniae D39) was “considerably higher”.
